Experimental data as given in patent US20210277003A1, “OGA INHIBITOR COMPOUNDS” (Janssen Pharmaceutica NV, priority 2018, published 2021).

How the values were obtained:
[1] = target: T1, recombinant human Meningioma Expressed Antigen 5 (MGEA5), also referred to as O-GlcNAcase (OGA) (Homo sapiens, UniProt O60502); test: OGA biochemical assay: inhibition of hydrolysis of fluorescein mono-ß-D-N-Acetyl-Glucosamine (FM-GlcNAc), fluorescence readout; details: FM-GlcNAc substrate; for Emax: read-out: Enzymatic Emax (%); for IC50: read-out: Enzymatic hOGA, pIC50 (converted)
T1 construct: Full length OGA enzyme was purchased at OnGene (cat #TP322411); purchased OnGene (so in the source)
T1 sequence (O60502 1-916): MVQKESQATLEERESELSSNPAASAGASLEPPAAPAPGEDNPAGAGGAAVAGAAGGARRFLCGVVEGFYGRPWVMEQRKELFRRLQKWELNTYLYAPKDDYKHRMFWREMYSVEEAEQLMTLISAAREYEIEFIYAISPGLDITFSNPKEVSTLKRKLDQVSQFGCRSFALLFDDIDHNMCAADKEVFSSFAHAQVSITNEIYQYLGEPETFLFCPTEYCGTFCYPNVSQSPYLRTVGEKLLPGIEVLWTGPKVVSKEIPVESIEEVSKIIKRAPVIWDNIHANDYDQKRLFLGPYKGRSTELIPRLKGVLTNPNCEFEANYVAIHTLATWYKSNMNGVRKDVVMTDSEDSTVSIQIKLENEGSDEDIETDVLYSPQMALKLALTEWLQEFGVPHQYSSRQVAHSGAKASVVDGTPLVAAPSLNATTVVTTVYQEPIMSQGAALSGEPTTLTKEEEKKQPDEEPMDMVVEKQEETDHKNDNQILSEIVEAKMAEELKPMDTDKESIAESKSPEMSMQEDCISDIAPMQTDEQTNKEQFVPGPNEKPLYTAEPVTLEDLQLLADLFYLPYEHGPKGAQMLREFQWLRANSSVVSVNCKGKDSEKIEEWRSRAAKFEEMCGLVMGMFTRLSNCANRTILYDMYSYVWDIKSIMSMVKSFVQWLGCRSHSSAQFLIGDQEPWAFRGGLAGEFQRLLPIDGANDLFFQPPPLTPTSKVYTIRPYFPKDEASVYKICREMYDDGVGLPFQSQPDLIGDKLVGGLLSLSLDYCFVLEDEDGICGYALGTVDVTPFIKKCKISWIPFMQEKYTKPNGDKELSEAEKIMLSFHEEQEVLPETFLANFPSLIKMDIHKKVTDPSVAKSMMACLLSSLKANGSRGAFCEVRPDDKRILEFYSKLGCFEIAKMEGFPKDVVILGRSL
Method in brief: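 Full-length recombinant human OGA (2 nM) was pre-incubated with compound for 60 min, then reacted with 100 uM FM-GlcNAc for 6 h at room temperature in 200 mM citrate/phosphate pH 7.2 with 0.005% Tween-20. Reactions were stopped with pH 11.0 carbonate and fluorescein read at 485/538 nm. IC50 and Hill coefficient came from curve fitting.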

[2] = test system: OGA in HEK293 cells inducible for P301L mutant human Tau (isoform 2N4R); test: OGA cellular assay: immunocytochemical detection of O-GlcNAcylated proteins (CTD110.6 antibody); assay type: cell-based; details: Homo sapiens, HEK293, 6 h, 6 hours incubation; for Emax: maximum = Thiamet G 200 uM; for EC50: read-out: Cellular hOGA, pEC50 (converted)
Method in brief: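 Cells seeded 2 days ahead in low-glucose assay medium and exposed to compounds for 6 h at 0.2% DMSO, then PFA-fixed and immunostained. Signal is 488 nm intensity from imaging (9 fields/well), with Hoechst nuclei counts as a toxicity check. IC50 from non-linear regression, with 200 uM Thiamet G per plate as maximum inhibition.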

Enzymatic hOGA; pIC50 [1]	Emax [1]	IC50 [1]	Enzymatic Emax (%) [1]	Structure (SMILES)	Emax [2]	EC50 [2]
8.49	105%			CCCCn1ccc2c(Nc3c(C)ccc(C(=O)N4CCOCC4)c3C)nccc21 [Compound 13]	87%	0.0282 µM
8.87	104%			Clc1cccc(Cl)c1Nc1nccc2c1ccn2CC1CCO1 (centres unmarked) [Compound 159]	84%	0.0204 µM
	104%	0.000977 µM		Cc1ccnc(C(C)C)c1Nc1nccc2c1ccn2CC(F)(F)C1CC1 [Compound 85]	94%	0.000708 µM
8.84	102%			Cc1ccnc(C)c1Nc1nccc2c1ccn2CC(F)(F)C1CC1 [Compound 23]	97%	0.00295 µM
7.06	100%			CCCCn1ccc2c(Nc3c(C)ccc4[nH]c(C)nc34)nccc21 [Compound 11]	80%	0.288 µM
	102%	0.017 µM		Cn1cnc(-n2ccc3c(Nc4c(Cl)cccc4Cl)nccc32)c1 [Compound 167]	81.9%	~0.224 µM
	100%	0.0347 µM		CCCCn1ccc2c(Nc3c(Cl)cncc3Cl)nccc21 [Compound 42]	49%	> 1 µM
8.58	101%			Cc1cc(OC(F)F)nc(C)c1Nc1nccc2c1ccn2CC(C)(F)F [Compound 149]	96.4%	0.0107 µM
	99%	0.00479 µM		CCCCn1ccc2c(Nc3c(C)cc4c(ncn4C)c3C)nccc21 [Compound 77]	83%	0.00741 µM
7.98	103%			FCCCCn1ccc2c(Nc3c(Cl)cccc3Cl)nccc21 [Compound 7]	84%	0.214 µM
	103%	0.00288 µM		CCCCn1ccc2c(Nc3c(C)cncc3C(C)C)nccc21 [Compound 63]	93%	0.0123 µM
	102%	0.00479 µM		CCCCn1ccc2c(Nc3c(C)cc4c(cnn4C)c3C)nccc21 [Compound 87]	87%	0.0129 µM
	100%	0.0288 µM		CCCCn1ccc2c(Nc3c(Cl)cccc3Cl)ncc(F)c21 [Compound 74]	40%	> 1 µM
	102%	0.00282 µM		CCCCn1ccc2c(Nc3c(C)cc(C(=O)N4CCCC4)cc3C)nccc21 [Compound 75]	85%	0.00603 µM
8.89	102%			Cc1cc(F)cc(C(C)C)c1Nc1nccc2c1ccn2CC(C)(F)F [Compound 148]	87.5%	~0.00479 µM
8.67	101%			Cc1cc(-c2cnn(C)c2)cc(C)c1Nc1nccc2c1ccn2CC(C)(F)F [Compound 154]	86.2%	0.00347 µM
7.03	100%			Cc1ccnc(OC(F)F)c1Nc1nccc2c1ccn2CC1CC(F)(F)C1 [Compound 114]	49.6%	0.871 µM
	103%	0.0017 µM		Clc1cccc(Cl)c1Nc1nccc2c1ccn2CCC1CC1 [Compound 70]	82%	0.0372 µM
7.72			103.22%	Clc1cccc(Cl)c1Nc1nccc2c1ccn2CCC1COC1 [Compound 122]	84.1%	0.263 µM
	104%	0.00151 µM		CC(C)C(F)(F)Cn1ccc2c(Nc3c(Cl)cccc3Cl)nccc21 [Compound 196]	91.7%	0.00851 µM
8.64	98.8%			Cc1cc(C)c(Nc2nccc3c2ccn3CC(C)(F)F)c(C)c1 [Compound 135]	82.2%	0.00933 µM
7.25	100%			Cc1ccnc(C)c1Nc1nccc2c1ccn2CC(C)O (centres unmarked) [Compound 144]	79%	0.182 µM
8.28	99.9%			Cc1ccnc(C(F)F)c1Nc1nccc2c1ccn2CC(C)(F)F [Compound 134]	77.5%	0.0813 µM
	101%	0.0234 µM		Cc1cc(Cl)cc(S(C)(=O)=O)c1Nc1nccc2c1ccn2CC1CC(F)(F)C1 [Compound 173]	88.5%	0.158 µM
	103%	0.0105 µM		CCCCn1ccc2c(Nc3c(C)cc4c(c3C)C(=O)N(C)C4)nccc21 [Compound 45]	87%	0.0166 µM
7.79	100%			CC[C@@H](O)Cn1ccc2c(Nc3c(C)cc(F)cc3C)nccc21 [Compound 145a]	81.2%	0.0562 µM
8.67	103%			Cc1ccnc(C(C)C)c1Nc1nccc2c1ccn2CC1CCO1 (centres unmarked) [Compound 160]	96%	0.00813 µM
7.56	102%			CC[C@@H](O)Cn1ccc2c(Nc3c(C)cc(C#N)cc3Cl)nccc21 [Compound 123a]	63.8%	0.437 µM
7.98	104%			Cc1cc(OC(F)F)cc(Cl)c1Nc1nccc2c1ccn2CC1CC(F)(F)C1 [Compound 116]	61.8%	0.055 µM
